# Measurements taken from patent US20070129439A1, “COMPOSITIONS CONTAINING SUBSTITUTED QUINOLINES AND SUBSTITUTED DIPHENYL SULFONES AND METHODS OF USE” (priority 2003, published 2007).
# Tested on: neurons
# Experiment: % neuron loss for test agents in a rat model with Alzheimer's disease (FIG. 1)
# Format: in vivo
# Details: rat model with AD
# Description: FIG. 1 is a plot of % neuron loss for several test agents in a rat model with Alzheimer's disease (AD).
Compound,% neuron loss (killing effect) (dapsone alone at 2 mg/kg),% neuron loss (killing effect) (hydroxychloroquine alone at 6.5 mg/kg)
"Nc1ccc(S(=O)(=O)c2ccc(N)cc2)cc1 [dapsone, 4,4′-diaminodiphenylsulfone]",suppression of the in vitro killing effect,–
CCN(CCO)CCCC(C)Nc1ccnc2cc(Cl)ccc12 (centres unmarked) [hydroxychloroquine],–,suppression of the in vitro killing effect
